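Five compound concentrations were applied to cells in 96-well plates for 48 hours; endpoints were derived by simple linear interpolation of the resulting dose-response curve. Here, GI50 denotes the concentration required for 50% inhibition of growth. At the TGI there is no net growth.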
Legend:
Assay in all cases: NCI anticancer screen, dose series, 48 h
UO-31 renal = test system: UO-31 renal
MCF7 breast = test system: MCF7 breast
SW-620 colon = test system: SW-620 colon
M14 melanoma = test system: M14 melanoma
HCC-2998 colon = test system: HCC-2998 colon
SN12C renal = test system: SN12C renal
ACHN renal = test system: ACHN renal
A498 renal = test system: A498 renal
SF-539 CNS = test system: SF-539 CNS
HL-60(TB) leukemia = test system: HL-60(TB) leukemia
SK-MEL-2 melanoma = test system: SK-MEL-2 melanoma
MALME-3M melanoma = test system: MALME-3M melanoma
PC-3 prostate = test system: PC-3 prostate
HT29 colon = test system: HT29 colon
CCRF-CEM leukemia = test system: CCRF-CEM leukemia
NCI-H226 lung = test system: NCI-H226 lung
SR leukemia = test system: SR leukemia
MOLT-4 leukemia = test system: MOLT-4 leukemia
SNB-19 CNS = test system: SNB-19 CNS
EKVX NSCLC = test system: EKVX NSCLC
RPMI-8226 leukemia = test system: RPMI-8226 leukemia
SK-MEL-5 melanoma = test system: SK-MEL-5 melanoma
NCI-H522 lung = test system: NCI-H522 lung
OVCAR-5 ovarian = test system: OVCAR-5 ovarian
UACC-257 melanoma = test system: UACC-257 melanoma
HOP-92 NSCLC = test system: HOP-92 NSCLC
RXF 393 renal = test system: RXF 393 renal
OVCAR-4 ovarian = test system: OVCAR-4 ovarian
DU-145 prostate = test system: DU-145 prostate
SK-MEL-28 melanoma = test system: SK-MEL-28 melanoma
U251 CNS = test system: U251 CNS
LOX IMVI melanoma = test system: LOX IMVI melanoma
SF-268 CNS = test system: SF-268 CNS
NCI-H23 lung = test system: NCI-H23 lung
NCI-H460 lung = test system: NCI-H460 lung
COLO 205 colon = test system: COLO 205 colon
OVCAR-8 ovarian = test system: OVCAR-8 ovarian
OVCAR-3 ovarian = test system: OVCAR-3 ovarian
HOP-62 NSCLC = test system: HOP-62 NSCLC
UACC-62 melanoma = test system: UACC-62 melanoma
IGROV1 ovarian = test system: IGROV1 ovarian
SF-295 CNS = test system: SF-295 CNS
NCI/ADR-RES ovarian = test system: NCI/ADR-RES ovarian
T-47D breast = test system: T-47D breast
CAKI-1 renal = test system: CAKI-1 renal
SNB-75 CNS = test system: SNB-75 CNS
HCT-116 colon = test system: HCT-116 colon
MDA-MB-435 = test system: MDA-MB-435
MDA-MB-231 breast = test system: MDA-MB-231 breast
KM12 colon = test system: KM12 colon
K-562 leukemia = test system: K-562 leukemia
TK-10 renal = test system: TK-10 renal
HCT-15 colon = test system: HCT-15 colon
SK-OV-3 ovarian = test system: SK-OV-3 ovarian
786-0 renal = test system: 786-0 renal
BT-549 breast = test system: BT-549 breast
HS 578T breast = test system: HS 578T breast

## CC(C)=NNc1ncnc2c1ncn2C1OC(CO)C(O)C1O (stereo unspecified)
UO-31 renal
  GI50: 0.354 µM
  TGI: 7.68 µM
MCF7 breast
  GI50: 0.327 µM
  TGI: > 51.5 µM
SW-620 colon
  GI50: 0.381 µM
  TGI: > 100 µM
M14 melanoma
  GI50: 0.752 µM
  TGI: > 100 µM
HCC-2998 colon
  GI50: 1.94 µM
  TGI: > 53 µM
SN12C renal
  GI50: 0.476 µM
  TGI: 15.3 µM
ACHN renal
  GI50: 0.278 µM
  TGI: 3.24 µM
A498 renal
  GI50: 1.43 µM
  TGI: > 100 µM
SF-539 CNS
  GI50: 2.06 µM
  TGI: 11.3 µM
HL-60(TB) leukemia
  GI50: 0.402 µM
  TGI: 5.61 µM
SK-MEL-2 melanoma
  GI50: 1.81 µM
  TGI: 29.2 µM
MALME-3M melanoma
  GI50: 11.8 µM
  TGI: > 100 µM
PC-3 prostate
  GI50: 0.733 µM
  TGI: 29.1 µM
HT29 colon
  GI50: 0.268 µM
  TGI: > 100 µM
CCRF-CEM leukemia
  GI50: 0.581 µM
  TGI: > 100 µM
NCI-H226 lung
  GI50: 0.448 µM
  TGI: > 100 µM
SR leukemia
  GI50: 0.414 µM
  TGI: > 22 µM
MOLT-4 leukemia
  GI50: 4.86 µM
  TGI: > 100 µM
SNB-19 CNS
  GI50: 1.43 µM
  TGI: > 100 µM
EKVX NSCLC
  GI50: 2.95 µM
  TGI: > 73.4 µM
RPMI-8226 leukemia
  GI50: 0.537 µM
  TGI: 4.04 µM
SK-MEL-5 melanoma
  GI50: 0.99 µM
  TGI: 4.2 µM
NCI-H522 lung
  GI50: 0.283 µM
  TGI: 3.24 µM
OVCAR-5 ovarian
  GI50: 1.16 µM
  TGI: > 31.1 µM
UACC-257 melanoma
  GI50: 5.75 µM
  TGI: > 100 µM
HOP-92 NSCLC
  GI50: 0.503 µM
  TGI: 5.27 µM
RXF 393 renal
  GI50: 0.3 µM
  TGI: 3.54 µM
OVCAR-4 ovarian
  GI50: 0.509 µM
  TGI: > 32.1 µM
DU-145 prostate
  GI50: 0.324 µM
  TGI: 2.4 µM
SK-MEL-28 melanoma
  GI50: 4.5 µM
  TGI: > 100 µM
U251 CNS
  GI50: 0.648 µM
  TGI: > 100 µM
LOX IMVI melanoma
  GI50: 0.228 µM
  TGI: 3.25 µM
SF-268 CNS
  GI50: 1.41 µM
  TGI: > 100 µM
NCI-H23 lung
  GI50: 1.48 µM
  TGI: 19.4 µM
NCI-H460 lung
  GI50: 0.304 µM
COLO 205 colon
  GI50: 0.414 µM
  TGI: 6.31 µM
OVCAR-8 ovarian
  GI50: 0.332 µM
  TGI: > 100 µM
OVCAR-3 ovarian
  GI50: 0.385 µM
  TGI: 1.97 µM
HOP-62 NSCLC
  GI50: 0.398 µM
  TGI: 4.21 µM
UACC-62 melanoma
  GI50: 1.21 µM
  TGI: 9.3 µM
IGROV1 ovarian
  GI50: 0.287 µM
SF-295 CNS
  GI50: 0.529 µM
  TGI: > 33.2 µM
NCI/ADR-RES ovarian
  GI50: 0.442 µM
  TGI: > 21.6 µM
T-47D breast
  GI50: 0.542 µM
  TGI: 9.6 µM
CAKI-1 renal
  GI50: 0.303 µM
  TGI: 17.1 µM
SNB-75 CNS
  GI50: 1.34 µM
  TGI: > 78.1 µM
HCT-116 colon
  GI50: 0.144 µM
  TGI: 2.07 µM
MDA-MB-435
  GI50: 0.528 µM
  TGI: 11.7 µM
MDA-MB-231 breast
  GI50: 0.285 µM
  TGI: 13.6 µM
KM12 colon
  GI50: 0.378 µM
  TGI: 2.65 µM
K-562 leukemia
  GI50: 0.417 µM
  TGI: > 100 µM
TK-10 renal
  GI50: 0.529 µM
  TGI: > 100 µM
HCT-15 colon
  GI50: 0.217 µM
SK-OV-3 ovarian
  GI50: 0.324 µM
  TGI: 4.22 µM
786-0 renal
  GI50: 0.72 µM
  TGI: 30.4 µM
BT-549 breast
  GI50: 1.61 µM
  TGI: 15.4 µM
HS 578T breast
  GI50: 5.8 µM
  TGI: > 26.3 µM

From PubChem BioAssay (NCI)
